In the CheMixHub ionic liquid set:
± gives the uncertainty stated by the source.

Assay: xn = mol fraction of the nth substance listed
[1] = 308.15 K, 101.3 kPa, x1 = 0.5022
[2] = 318.15 K, 101.3 kPa, x1 = 0.5763
[3] = 323.15 K, 101.3 kPa, x1 = 0.401
[4] = 328.15 K, 101.3 kPa, x1 = 0.5022
[5] = 328.15 K, 101.3 kPa, x1 = 0.6828
[6] = 338.15 K, 101.3 kPa, x1 = 0.5022
[7] = 343.15 K, 101.3 kPa, x1 = 0.6828
[8] = 343.15 K, 101.3 kPa, x1 = 0.8154
[9] = 348.15 K, 101.3 kPa, x1 = 0.401
[10] = 348.15 K, 101.3 kPa, x1 = 0.5763
[11] = 353.15 K, 101.3 kPa, x1 = 0.5763

SMILES: CCCCn1cc[n+](C)c1C.O=S(=O)([N-]S(=O)(=O)C(F)(F)F)C(F)(F)F + O=C1CCCO1
- electrical conductivity (293.15 K, 100 kPa, frequency 0.005 MHz, x2 = 0.1014): 0.207 ± 0.006 S/m
- electrical conductivity (293.15 K, 100 kPa, frequency 0.005 MHz, x2 = 0.3): 0.302 ± 0.009 S/m
- electrical conductivity (293.15 K, 100 kPa, frequency 0.005 MHz, x2 = 0.8001): 1.12 ± 0.034 S/m
- electrical conductivity (298.15 K, 100 kPa, frequency 0.005 MHz, x2 = 0.8996): 1.3 ± 0.039 S/m
- electrical conductivity (303.15 K, 100 kPa, frequency 0.005 MHz, x2 = 0.3): 0.451 ± 0.014 S/m
- electrical conductivity (303.15 K, 100 kPa, frequency 0.005 MHz, x2 = 0.9468): 1.01 ± 0.033 S/m
- electrical conductivity (308.15 K, 100 kPa, frequency 0.005 MHz, x2 = 0.3): 0.538 ± 0.016 S/m
- electrical conductivity (308.15 K, 100 kPa, frequency 0.005 MHz, x2 = 0.7012): 1.28 ± 0.039 S/m
- electrical conductivity (313.15 K, 100 kPa, frequency 0.005 MHz, x2 = 0.1014): 0.479 ± 0.014 S/m
- electrical conductivity (313.15 K, 100 kPa, frequency 0.005 MHz, x2 = 0.7012): 1.43 ± 0.043 S/m
- electrical conductivity (318.15 K, 100 kPa, frequency 0.005 MHz, x2 = 0): 0.51 ± 0.015 S/m
- electrical conductivity (318.15 K, 100 kPa, frequency 0.005 MHz, x2 = 0.7012): 1.58 ± 0.047 S/m
- electrical conductivity (323.15 K, 100 kPa, frequency 0.005 MHz, x2 = 0): 0.599 ± 0.018 S/m

SMILES: CCCCCC[NH2+]CCN.O=S(=O)([N-]S(=O)(=O)C(F)(F)F)C(F)(F)F + O
- electrical conductivity [1]: 0.182 ± 0.004 S/m
- viscosity [1]: 77.8 ± 2.4 mPa·s
- electrical conductivity [2]: 0.188 ± 0.0038 S/m
- viscosity [2]: 50.3 ± 1.4 mPa·s
- electrical conductivity [3]: 0.589 ± 0.012 S/m
- viscosity [3]: 21.2 ± 0.6 mPa·s
- electrical conductivity [4]: 0.42 ± 0.01 S/m
- viscosity [4]: 29.1 ± 0.8 mPa·s
- electrical conductivity [5]: 0.233 ± 0.005 S/m
- viscosity [5]: 45.5 ± 1.3 mPa·s
- electrical conductivity [6]: 0.6 ± 0.1 S/m
- viscosity [6]: 19.7 ± 0.5 mPa·s
- electrical conductivity [7]: 0.428 ± 0.009 S/m
- viscosity [7]: 24.2 ± 0.7 mPa·s
- electrical conductivity [8]: 0.321 ± 0.006 S/m
- viscosity [8]: 25.9 ± 0.7 mPa·s
- electrical conductivity [9]: 1.29 ± 0.03 S/m
- viscosity [9]: 9 ± 0.24 mPa·s
- electrical conductivity [10]: 0.625 ± 0.013 S/m
- viscosity [10]: 15 ± 0.4 mPa·s
- electrical conductivity [11]: 0.729 ± 0.015 S/m
- viscosity [11]: 12.8 ± 0.3 mPa·s

SMILES: CC[NH2+]CC.O=S(=O)([O-])O + O
- viscosity (298.15 K, 101 kPa, x2 = 0.6088): 32.1 ± 2.2 mPa·s

SMILES: CC(N)C(=O)[O-].COCCCCn1cc[n+](C)c1 + CS(C)=O
- viscosity (288.15 K, 100 kPa, x1 = 0.1996): 11.74 ± 0.14 mPa·s
- viscosity (288.15 K, 100 kPa, x1 = 0.3012): 22.04 ± 0.3 mPa·s
- viscosity (288.15 K, 100 kPa, x1 = 0.5996): 96.5 ± 2.4 mPa·s
- viscosity (288.15 K, 100 kPa, x1 = 0.8997): 304 ± 19 mPa·s
- viscosity (293.15 K, 100 kPa, x1 = 0.1996): 11.35 ± 0.11 mPa·s
- viscosity (293.15 K, 100 kPa, x1 = 0.3012): 19.11 ± 0.21 mPa·s
- viscosity (293.15 K, 100 kPa, x1 = 1): 266 ± 16 mPa·s
- viscosity (298.15 K, 100 kPa, x1 = 0.1996): 8.85 ± 0.11 mPa·s
- viscosity (303.15 K, 100 kPa, x1 = 0.1996): 7.37 ± 0.08 mPa·s
- viscosity (303.15 K, 100 kPa, x1 = 0.5996): 41.72 ± 0.54 mPa·s
- viscosity (308.15 K, 100 kPa, x1 = 0.3985): 16.23 ± 0.19 mPa·s
- viscosity (308.15 K, 100 kPa, x1 = 0.5996): 33.51 ± 0.42 mPa·s
- viscosity (308.15 K, 100 kPa, x1 = 0.6966): 44.96 ± 0.57 mPa·s
- viscosity (308.15 K, 100 kPa, x1 = 0.7973): 60.65 ± 0.77 mPa·s
- viscosity (313.15 K, 100 kPa, x1 = 0.6966): 36.01 ± 0.46 mPa·s
- viscosity (318.15 K, 100 kPa, x1 = 0.1009): 3.18 ± 0.04 mPa·s
- viscosity (318.15 K, 100 kPa, x1 = 0.4922): 15.18 ± 0.18 mPa·s
- viscosity (318.15 K, 100 kPa, x1 = 0.5996): 21.68 ± 0.27 mPa·s
- viscosity (318.15 K, 100 kPa, x1 = 0.7973): 37.1 ± 0.51 mPa·s

SMILES: CCCCCO + CCCCCC[n+]1ccn(C)c1.[Cl-]
- viscosity (303.15 K, 101 kPa, x1 = 1): 3.03 ± 0.06 mPa·s

SMILES: O=S(=O)([N-]S(=O)(=O)C(F)(F)F)C(F)(F)F.[Li+] + COCCOCCOCCOCCOC
- electrical conductivity (293 K, 100 kPa, frequency 0.05 MHz, x1 = 0.143): 0.235 ± 0.005 S/m

SMILES: CC[N+](CC)(CC)CCCS(=O)(=O)O.F[B-](F)(F)F + O
- electrical conductivity (298 K, 101 kPa, x1 = 0.00077): 1.03 S/m
- electrical conductivity (298 K, 101 kPa, x1 = 0.002): 1.68 S/m
- electrical conductivity (298 K, 101 kPa, x1 = 0.01495): 2.42 S/m
- electrical conductivity (298 K, 101 kPa, x1 = 0.02005): 2.22 S/m

SMILES: O=S(=O)([N-]S(=O)(=O)C(F)(F)F)C(F)(F)F.[Li+] + CCCC[N+]1(C)CCCC1.O=S(=O)([N-]S(=O)(=O)C(F)(F)F)C(F)(F)F
- electrical conductivity (277.9 K, 100 kPa, x1 = 0.24): 0.007 ± 0.001 S/m
- electrical conductivity (283.4 K, 100 kPa, x1 = 0.24): 0.016 ± 0.001 S/m
- electrical conductivity (298 K, 100 kPa, x1 = 0.24): 0.062 ± 0.004 S/m
- electrical conductivity (346.4 K, 100 kPa, x1 = 0.24): 0.429 ± 0.026 S/m

SMILES: OC1OC[C@@H](O)[C@H](O)[C@H]1O (some centres undefined) + O + CCCCCCCCn1cc[n+](C)c1.[Br-]
- viscosity (298.15 K, 101 kPa, x1 = 0.0001923, x3 = 0.001831): 0.966 ± 0.014 mPa·s
- viscosity (298.15 K, 101 kPa, x1 = 0.0001932, x3 = 0.003598): 1.027 ± 0.015 mPa·s
- viscosity (298.15 K, 101 kPa, x1 = 0.0002045, x3 = 0.00713): 1.178 ± 0.015 mPa·s
- viscosity (298.15 K, 101 kPa, x1 = 0.0002136, x3 = 0.005442): 1.104 ± 0.015 mPa·s
- viscosity (298.15 K, 101 kPa, x1 = 0.0003697, x3 = 0.00183): 0.97 ± 0.014 mPa·s
- viscosity (298.15 K, 101 kPa, x1 = 0.0003826, x3 = 0.003597): 1.03 ± 0.015 mPa·s
- viscosity (298.15 K, 101 kPa, x1 = 0.0004154, x3 = 0.005441): 1.11 ± 0.015 mPa·s
- viscosity (298.15 K, 101 kPa, x1 = 0.00056, x3 = 0.00183): 0.976 ± 0.014 mPa·s
- viscosity (298.15 K, 101 kPa, x1 = 0.0005832, x3 = 0.003596): 1.035 ± 0.015 mPa·s
- viscosity (298.15 K, 101 kPa, x1 = 0.000592, x3 = 0.00544): 1.115 ± 0.015 mPa·s
- viscosity (298.15 K, 101 kPa, x1 = 0.0006052, x3 = 0.007127): 1.189 ± 0.016 mPa·s
- viscosity (298.15 K, 101 kPa, x1 = 0.0007465, x3 = 0.00183): 0.981 ± 0.014 mPa·s
- viscosity (298.15 K, 101 kPa, x1 = 0.0007705, x3 = 0.003595): 1.04 ± 0.015 mPa·s
- viscosity (298.15 K, 101 kPa, x1 = 0.0007917, x3 = 0.005439): 1.121 ± 0.015 mPa·s
- viscosity (298.15 K, 101 kPa, x1 = 0.0008153, x3 = 0.007126): 1.195 ± 0.016 mPa·s
- viscosity (298.15 K, 101 kPa, x1 = 0.0009407, x3 = 0.003595): 1.044 ± 0.015 mPa·s
- viscosity (298.15 K, 101 kPa, x1 = 0.0009495, x3 = 0.001829): 0.985 ± 0.015 mPa·s
- viscosity (298.15 K, 101 kPa, x1 = 0.0009701, x3 = 0.005438): 1.127 ± 0.015 mPa·s
- viscosity (298.15 K, 101 kPa, x1 = 0.0009957, x3 = 0.007124): 1.202 ± 0.016 mPa·s
- viscosity (298.15 K, 101 kPa, x1 = 0.001112, x3 = 0.001829): 0.989 ± 0.015 mPa·s
- viscosity (298.15 K, 101 kPa, x1 = 0.001145, x3 = 0.003594): 1.051 ± 0.015 mPa·s
- viscosity (298.15 K, 101 kPa, x1 = 0.00115, x3 = 0.005437): 1.13 ± 0.015 mPa·s
- viscosity (298.15 K, 101 kPa, x1 = 0.001216, x3 = 0.007123): 1.207 ± 0.016 mPa·s
- viscosity (298.15 K, 101 kPa, x1 = 0.001289, x3 = 0.001829): 0.993 ± 0.015 mPa·s
- viscosity (298.15 K, 101 kPa, x1 = 0.001332, x3 = 0.003593): 1.054 ± 0.015 mPa·s
- viscosity (298.15 K, 101 kPa, x1 = 0.00134, x3 = 0.005436): 1.135 ± 0.015 mPa·s
- viscosity (298.15 K, 101 kPa, x1 = 0.00141, x3 = 0.007121): 1.213 ± 0.016 mPa·s
- viscosity (298.15 K, 101 kPa, x1 = 0.001459, x3 = 0.001828): 0.996 ± 0.015 mPa·s
- viscosity (298.15 K, 101 kPa, x1 = 0.00151, x3 = 0.003593): 1.059 ± 0.015 mPa·s
- viscosity (298.15 K, 101 kPa, x1 = 0.00153, x3 = 0.005435): 1.14 ± 0.015 mPa·s
- viscosity (298.15 K, 101 kPa, x1 = 0.001602, x3 = 0.00712): 1.219 ± 0.016 mPa·s
- viscosity (298.15 K, 101 kPa, x1 = 0.001647, x3 = 0.001828): 1 ± 0.015 mPa·s
- viscosity (298.15 K, 101 kPa, x1 = 0.001708, x3 = 0.003592): 1.065 ± 0.015 mPa·s
- viscosity (298.15 K, 101 kPa, x1 = 0.001741, x3 = 0.005433): 1.147 ± 0.015 mPa·s
- viscosity (298.15 K, 101 kPa, x1 = 0.001813, x3 = 0.007119): 1.224 ± 0.016 mPa·s

SMILES: FC(F)C(F)(F)COC(F)(F)C(F)F + O=S(=O)([N-]S(=O)(=O)C(F)(F)F)C(F)(F)F.[Li+] + O=S1(=O)CCCC1
- electrical conductivity (303.15 K, 101 kPa, x2 = 0.1429, x3 = 0.5714): 0.073 ± 0.002 S/m
- electrical conductivity (303.15 K, 101 kPa, x2 = 0.1818, x3 = 0.5455): 0.09 ± 0.002 S/m
- electrical conductivity (303.15 K, 101 kPa, x2 = 0.25, x3 = 0.5): 0.09 ± 0.002 S/m
- electrical conductivity (303.15 K, 101 kPa, x2 = 0.4, x3 = 0.4): 0.079 ± 0.002 S/m
